This is an account of results in patent US5635477A, “Cyclic compounds useful as inhibitors of platelet glycoprotein IIB/IIIA” (The DuPont Merck Pharmaceutical Company, priority 1995, dated 1997).

The target in experiment [1] is T1, purified GPIIb/IIIa receptors obtained from human platelets (Homo sapiens, UniProt P05106+P08514).
T1 construct: purified GPIIb/IIIa receptors obtained from human platelets; from tissue; host or cells: human platelets
The experiment in a line: purified GPIIb/IIIa-biotinylated fibrinogen ELISA. It is filed as binding. Particulars: competitive; Michaelis-Menten analysis. An excerpt: (§1) This effect may explain the lyric efficacy of the compounds of the present invention.
A general note: In an ELISA, binding on a coated surface is turned into a signal by an enzyme label.

The test system of experiment [2] is already formed platelet-rich clot. Particulars: for lytic effect on already formed platelet-rich clot: varying concentrations. The method, then:
Thrombolytic Assay: Venous blood was obtained from the arm of a healthy human donor who was drug-free and aspirin free for at least two weeks prior to blood collection, and placed into 10 ml citrated Vacutainer tubes. The blood was centrifuged for 15 minutes at 1500 ×g at room temperature, and platelet rich plasma (PRP) was removed. To the PRP was then added 1×10^- 3M of the agonist ADP, epinephrine, collagen, arachidonate, serotonin or thrombin, or a mixture thereof, and the PRP incubated for 30 minutes. The PRP was centrifuged for 12 minutes at 2500×g at room temperature. The supernatant was then poured off, and the platelets remaining in the test tube were resuspended in platelet poor plasma (PPP), which served as a plasminogen source. The suspension was then assayed on a Coulter Counter (Coulter Electronics, Inc., Hialeah, Fla.), to determine the platelet count at the zero time point. After obtaining the zero time point, test compounds were added at various concentrations. Test samples were taken at various time points and the platelets were counted using the Coulter Counter. To determine the percent of lysis, the platelet count at a time point subsequent to the addition of the test compound was subtracted from the platelet count at the zero time point, and the resulting number divided by the platelet count at the zero time point. […] For the IC50 evaluation, the test compounds were added at various concentrations, and the percentage of lysis caused by the test compounds was calculated.
Compounds A and B were also tested at varying concentrations using the thrombolytic assay described above (FIG. Ib). […] The clot was formed by incubating platelets with a mixture of agonists (TEAC mixture), which consists of thrombin (0.01 U/ml), epinephrine (250 uM), ADP (250 uM), and collagen (10 ug.ml), for 30 minutes. As a comparison, a linear peptide of sequence arginine-glycine-aspartic acid-serine (RGDS) was also tested in the thrombolytic assay.

The test system of experiment [3] is thrombus in the femoral artery. Put plainly: in vivo thrombolysis, modified Lucchesi model. Particulars: listed as Compound A. An excerpt: Data represent mean±SEM. n=3-6 in each group.
Experiment [4] deals with T2, platelet GPIIb/IIIa receptor (Homo sapiens, UniProt P05106+P08514).
T2 construct: Human PRP (h-PRP) was applied to a Sepharose column for the purification of platelet fractions; endogenous in cells; host or cells: human gel-purified platelets (h-GPP) from donor platelet-rich plasma
T2 sequence (P08514 32-887 limits assumed): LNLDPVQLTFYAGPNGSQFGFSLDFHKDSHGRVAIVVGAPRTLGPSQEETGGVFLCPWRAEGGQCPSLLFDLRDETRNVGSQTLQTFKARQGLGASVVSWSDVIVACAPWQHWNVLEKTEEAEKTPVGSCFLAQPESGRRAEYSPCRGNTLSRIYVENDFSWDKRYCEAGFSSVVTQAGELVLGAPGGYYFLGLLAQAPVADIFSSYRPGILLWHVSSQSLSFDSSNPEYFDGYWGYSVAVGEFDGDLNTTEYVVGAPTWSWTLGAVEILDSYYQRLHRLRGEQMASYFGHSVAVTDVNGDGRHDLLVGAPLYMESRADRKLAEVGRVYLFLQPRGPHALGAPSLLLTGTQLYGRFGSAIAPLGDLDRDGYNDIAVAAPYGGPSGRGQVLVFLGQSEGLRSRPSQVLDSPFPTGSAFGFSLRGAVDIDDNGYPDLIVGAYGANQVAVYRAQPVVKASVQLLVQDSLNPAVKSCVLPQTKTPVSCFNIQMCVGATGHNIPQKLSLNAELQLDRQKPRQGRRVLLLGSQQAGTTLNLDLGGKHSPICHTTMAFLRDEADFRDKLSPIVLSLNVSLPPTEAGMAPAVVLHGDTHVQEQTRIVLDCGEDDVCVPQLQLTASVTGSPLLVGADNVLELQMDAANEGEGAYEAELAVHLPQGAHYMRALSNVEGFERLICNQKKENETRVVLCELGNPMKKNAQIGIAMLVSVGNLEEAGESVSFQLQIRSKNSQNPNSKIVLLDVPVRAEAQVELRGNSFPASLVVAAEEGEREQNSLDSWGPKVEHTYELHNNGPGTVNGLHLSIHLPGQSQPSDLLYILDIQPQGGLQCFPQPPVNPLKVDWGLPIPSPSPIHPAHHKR
T2 sequence (P08514 891-1039 partner limits assumed): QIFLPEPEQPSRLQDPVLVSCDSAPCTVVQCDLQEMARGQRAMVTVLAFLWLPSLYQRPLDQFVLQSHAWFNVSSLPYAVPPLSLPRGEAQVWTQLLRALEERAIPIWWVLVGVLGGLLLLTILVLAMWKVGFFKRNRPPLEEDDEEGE
T2 sequence (P05106 27-788): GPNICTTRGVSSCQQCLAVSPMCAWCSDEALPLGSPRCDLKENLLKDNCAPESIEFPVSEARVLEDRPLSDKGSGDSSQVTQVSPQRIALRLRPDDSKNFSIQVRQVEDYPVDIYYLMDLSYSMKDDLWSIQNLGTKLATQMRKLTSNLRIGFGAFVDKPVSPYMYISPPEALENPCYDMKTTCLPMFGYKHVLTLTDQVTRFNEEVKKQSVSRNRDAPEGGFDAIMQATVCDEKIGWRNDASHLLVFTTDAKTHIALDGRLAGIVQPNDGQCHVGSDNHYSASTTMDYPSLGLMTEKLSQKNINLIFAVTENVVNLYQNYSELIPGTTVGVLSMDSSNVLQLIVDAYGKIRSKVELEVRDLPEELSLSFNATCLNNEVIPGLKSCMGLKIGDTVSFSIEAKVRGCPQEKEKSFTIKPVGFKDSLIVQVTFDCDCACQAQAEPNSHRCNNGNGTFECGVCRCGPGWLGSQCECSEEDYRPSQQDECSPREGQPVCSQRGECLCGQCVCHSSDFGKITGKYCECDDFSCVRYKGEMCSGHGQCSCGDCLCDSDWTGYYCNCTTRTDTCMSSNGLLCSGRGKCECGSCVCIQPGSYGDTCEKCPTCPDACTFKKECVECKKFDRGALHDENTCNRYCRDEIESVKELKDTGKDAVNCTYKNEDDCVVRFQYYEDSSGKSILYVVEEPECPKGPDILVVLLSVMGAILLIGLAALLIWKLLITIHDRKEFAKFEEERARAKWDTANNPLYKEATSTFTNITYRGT
The experiment in a line: Platelet-Fibrinogen Binding Assay (125I-fibrinogen, h-GPP). The following applies: fibrinogen bound 20 minutes before compound. How it is done: Platelet-Fibrinogen Binding Assay: Binding of ^125 I-fibrinogen to platelets was performed as described by Bennett et al. (1983) Proc. Natl. Acad. Sci. USA 80: 2417-2422, with some modifications as described below. Human PRP (h-PRP) was applied to a Sepharose column for the purification of platelet fractions. Aliquots of platelets (5×10^8 cells) along with 1 mM calcium chloride were added to removable 96 well plates prior to the activation of the human gel purified platelets (h-GPP). Activation of the human gel purified platelets was achieved using ADP, collagen, arachidonate, epinephrine, and/or thrombin in the presence of the ligand, ^125 I-fibrinogen. The ^125 I-fibrinogen bound to the activated, platelets was separated from the free form by centrifugation and then counted on a gamma counter.

For experiment [5], the system named is femoral artery reocclusion. The experiment in a line: femoral artery reocclusion post-thrombolysis. It is filed as in vivo, canine (male or female mongrel dogs). How it is done:
Effects of Compound A vs saline, when given to anesthetized canine (male or female mongrel dogs) at 1.0 mg/kg I.V., on the incidence of femoral artery reocclusion post-thrombolysis with streptokinase (250-300×1000 IU/kg) or t-PA. […] Data represents mean ±SEM, n=6 in each group.

For experiment [6], the target named is agonist-induced platelet aggregation (Homo sapiens, UniProt P05106+P08514). The experiment in a line: Platelet Aggregation Assay. The following applies: human PRP; for IC50: agonist-induced aggregation. It is filed as cell-based. How it is done:
Blood was collected into 10 ml citrated Vacutainer tubes.

For experiment [7], the system named is activated human platelets. The experiment in a line: binding of 3H-labeled Compound A to activated human platelets. The following applies: Scatchard analysis.
Description: as §1

Experiment [8] has as its system platelet granular secretion. Particulars: cited from earlier work.

“Also recorded” adds a separate entry of the source. Like-named read-outs stand apart in the source and are kept apart here. Starred links: 1 amine or outer side, 2 acyl side, 3 side chain; linkers in the order of their positions; H or OH if unused. Non-standard residues stand in square brackets, D forms with d. Residues, ends and D or L forms follow the SMILES beside them. X4 = O=C(c1cc(CN[*:1])ccc1Cl)[*:2]; NMeR = CN[C@@H](CCCNC(=N)N)C(=O)O; X3 = Cc1ccc(CN[*:1])cc1C(=O)[*:2]; X8 = O=C(c1cc(CN[*:1])ccc1I)[*:2]; 3Amb = NCc1cccc(C(=O)O)c1; dAbu = CC[C@@H](N)C(=O)O

agonist-induced platelet aggregation, sequence (P08514 32-1039): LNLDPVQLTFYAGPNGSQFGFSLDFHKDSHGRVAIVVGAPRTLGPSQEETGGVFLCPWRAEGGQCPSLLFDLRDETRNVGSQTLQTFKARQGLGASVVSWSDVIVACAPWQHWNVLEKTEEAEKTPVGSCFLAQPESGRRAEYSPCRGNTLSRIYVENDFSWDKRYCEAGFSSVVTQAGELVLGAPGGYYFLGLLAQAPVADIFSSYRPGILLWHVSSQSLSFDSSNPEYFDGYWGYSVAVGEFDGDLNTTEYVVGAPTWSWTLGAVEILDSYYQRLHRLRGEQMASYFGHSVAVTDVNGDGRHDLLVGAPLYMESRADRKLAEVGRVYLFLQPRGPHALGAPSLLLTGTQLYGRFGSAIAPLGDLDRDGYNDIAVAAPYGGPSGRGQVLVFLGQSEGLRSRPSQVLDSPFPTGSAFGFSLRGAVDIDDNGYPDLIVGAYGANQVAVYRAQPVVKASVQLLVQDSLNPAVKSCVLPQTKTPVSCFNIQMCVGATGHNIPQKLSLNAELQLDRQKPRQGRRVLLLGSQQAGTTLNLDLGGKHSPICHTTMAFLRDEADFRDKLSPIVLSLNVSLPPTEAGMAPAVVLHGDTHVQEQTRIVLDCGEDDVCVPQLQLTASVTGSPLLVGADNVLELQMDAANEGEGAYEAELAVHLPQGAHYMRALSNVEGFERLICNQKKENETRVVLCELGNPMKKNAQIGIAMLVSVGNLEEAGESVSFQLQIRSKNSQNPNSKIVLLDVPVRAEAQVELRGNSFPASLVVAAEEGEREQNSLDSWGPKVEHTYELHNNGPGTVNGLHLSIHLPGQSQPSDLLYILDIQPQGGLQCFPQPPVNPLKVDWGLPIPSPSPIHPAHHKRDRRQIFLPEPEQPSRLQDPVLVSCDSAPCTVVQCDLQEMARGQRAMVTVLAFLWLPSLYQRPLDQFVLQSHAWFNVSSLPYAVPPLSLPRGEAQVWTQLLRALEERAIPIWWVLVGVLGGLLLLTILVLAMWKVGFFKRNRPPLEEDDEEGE
agonist-induced platelet aggregation, sequence (P05106 27-788): as the sequence (P05106 27-788) above
T1 sequence (P08514 32-887 limits assumed): as the sequence (P08514 32-887 limits assumed) above
T1 sequence (P08514 891-1039 partner limits assumed): as the sequence (P08514 891-1039 partner limits assumed) above
T1 sequence (P05106 27-788): as the sequence (P05106 27-788) above

In the case of `CC[C@H]1NC(=O)c2cccc(c2)CNC(=O)[C@H](CC(=O)O)NC(=O)CNC(=O)[C@H](CCCN=C(N)N)N(C)C1=O` [Example 3, cyclo-(D-Abu-NMeArg-Gly-Asp-Mamb)] (cyclo([NMeR]GD[3Amb][dAbu])), the inhibition constant (Ki) (as a rule, the equilibrium dissociation constant of an inhibitor or competing ligand from its target) in experiment [1] is 0.4 nM.

Compound `CC[C@H]1NC(=O)c2cccc(c2)CNC(=O)[C@H](CC(=O)O)NC(=O)CNC(=O)[C@H](CCCNC(=N)N)N(C)C1=O` [Example 3, cyclo-(D-Abu-NMeArg-Gly-Asp-Mamb)] (cyclo([NMeR]GD[3Amb][dAbu])) registered a lysis percentage in experiment [2] (0.001 mM, platelet stimulation 1x10^-3 M ADP) of at least 70%. Further, the “lytic effect on already formed platelet-rich clot” value in experiment [2] (listed as A) is given as “significant lyric efficacy of pre-formed platelet rich-clot”; in experiment [2] (listed as Compound A), “significant lytic effect on the clot”. For the same compound, the “in vivo thrombolytic efficacy with streptokinase” value in experiment [3] (1 mg/kg I.V. plus sub-optimum streptokinase (75 KU)) is “significant synergistic effect in fully lysing the thrombus; also recorded: increase in in vivo thrombolytic efficacy while allowing a significantly lower dose of streptokinase”. In experiment [3] (1 mg/kg I.V.), the “in vivo thrombolytic efficacy alone” value is “significant lysis of an already formed thrombus in the femoral artery; also recorded: good in vivo thrombolytic efficacy”. Moreover, the “displacement of 125I-fibrinogen bound to activated platelets” value in experiment [4] is listed as “displace ^125 I-fibrinogen bound to activated platelets”. This compound registered a period without reocclusion in experiment [5] (1.0 mg/kg I.V., post-thrombolysis) above 240 min. Also, the prevention of reocclusion in experiment [5] (1.0 mg/kg I.V., post-thrombolysis with streptokinase or t-PA) is recorded as 100%. Further, the “reocclusion following SK or t-PA thrombolysis” value in experiment [5] (dog, in vivo) was “virtually no reocclusion”. Also, the deaggregation of platelets result in experiment [6] (added after initiation of aggregation) is on record as “deaggregate platelets after the initiation of aggregation”. Moreover, the IC50 (in general, the concentration that gives 50% inhibition) in experiment [6] was below 1000 nM. For the same compound, in experiment [7], the Kd (in general, the concentration at which binding is half-saturated) is 0.1 nM.

Regarding `CC(C)[C@H]1NC(=O)c2cccc(c2)CNC(=O)[C@H](CC(=O)O)NC(=O)CNC(=O)[C@H](CCCNC(=N)N)N(C)C1=O` [Example 4, cyclo-(D-Val-NMeArg-Gly-Asp-Mamb)], the figures for the IC50 in experiment [2] and in experiment [6] were 500 to 1000 nM and below 1000 nM, respectively. Further, in experiment [2] (in vitro, pre-formed platelet-rich clot), the “thrombolytic effect in combination with tPA, urokinase or streptokinase” value is recorded as “significantly better than the additive effects of both agents”. Also, the “lytic effect on already formed platelet-rich clot” value in experiment [2] (listed as B) was “significant lyric efficacy of pre-formed platelet rich-clot”; in experiment [2] (listed as Compound B) it was “significant lytic effect on the clot”.

On to `CC(C)[C@H]1NC(=O)c2cc(ccc2Cl)CNC(=O)[C@H](CC(=O)O)NC(=O)CNC(=O)[C@H](CCCNC(=N)N)N(C)C1=O` [Example 97, cyclo-(D-Val-NMeArg-Gly-Asp-3-aminomethyl-6-chlorobenzoic acid)], for which, in experiment [6], the IC50 is below 1000 nM.

For `CC[C@H]1NC(=O)c2cc(ccc2Cl)CNC(=O)[C@H](CC(=O)O)NC(=O)CNC(=O)[C@H](CCCNC(=N)N)N(C)C1=O` [Example 100a, cyclo-(D-Abu-NMeArg-Gly-Asp-3-aminomethyl-6-chlorobenzoic acid)] (cyclo([NMeR]GD[X4][dAbu])), the IC50 in experiment [6] is below 1000 nM.

The compound `CC[C@H]1NC(=O)c2cc(ccc2I)CNC(=O)[C@H](CC(=O)O)NC(=O)CNC(=O)[C@H](CCCNC(=N)N)N(C)C1=O` [Example 100b, cyclo-(D-Abu-NMeArg-Gly-Asp-3-aminomethyl-6-iodobenzoic acid)] (cyclo([NMeR]GD[X8][dAbu])) had an IC50 in experiment [6] below 1000 nM.

Take `CC[C@H]1NC(=O)c2cc(ccc2C)CNC(=O)[C@H](CC(=O)O)NC(=O)CNC(=O)[C@H](CCCNC(=N)N)N(C)C1=O` [Example 100c, cyclo-(D-Abu-NMeArg-Gly-Asp-3-aminomethyl-6-methylbenzoic acid)] (cyclo([NMeR]GD[X3][dAbu])): in experiment [6], the IC50 is below 1000 nM.

With `CC(=O)Oc1ccccc1C(=O)O` [aspirin, acetylsalicyclic acid, reference compound], the “effect on platelet granular secretion (PAI-1, serotonin)” value in experiment [8] is recorded as “inhibit platelet granular secretion”.

Take hirudin: the “effect on platelet granular secretion (PAI-1, serotonin)” value in experiment [8] is on record as “inhibit platelet granular secretion”.
